These results are taken from PMC9234962, “Optimization of Peptide Linker-Based Fluorescent Ligands for the Histamine H1 Receptor” (Journal of Medicinal Chemistry, 2022).

For this test, the target named is Nluc-H1R (Homo sapiens, UniProt P35367). Nature of the test: NanoBRET saturation binding assay on Nluc-H1R expressing HEK293T cells. Also on record: expressed in transfected cells. The note with it: saturation binding curves, whole HEK293T cells; for pKD: non-specific with 10 μM mepyramine, mean ± SEM. The text has this:
Total and non-specific saturation binding curves from NanoBRET saturation binding assay were fitted simultaneously using eq 1: [drawing 4] 1 where Bmax is the maximal specific binding, [B] is the concentration of fluorescent ligand in nM, KD is the equilibrium dissociation constant in nM, M is the slope of the non-specific component, and C is the intercept with the Y axis.

Square brackets hold non-standard residues; d marks the D form. Side chains are listed from the residue outwards. Peptide text beside a SMILES is read from it. * marks the point of attachment. X1 = O=C(COc1ccc(/C=C/C2=[N+]3C(=Cc4ccc(-c5cccs5)n4[B-]3(F)F)C=C2)cc1)*; Propanoyl(3-Pip(4-O-2-BnPh)) = O=C(CCN1CCC(Oc2ccccc2Cc2ccccc2)CC1)*; Ahx = NCCCCCC(=O)O; βAla = NCCC(=O)O

Sequence of Nluc-H1R (P35367 whole entry): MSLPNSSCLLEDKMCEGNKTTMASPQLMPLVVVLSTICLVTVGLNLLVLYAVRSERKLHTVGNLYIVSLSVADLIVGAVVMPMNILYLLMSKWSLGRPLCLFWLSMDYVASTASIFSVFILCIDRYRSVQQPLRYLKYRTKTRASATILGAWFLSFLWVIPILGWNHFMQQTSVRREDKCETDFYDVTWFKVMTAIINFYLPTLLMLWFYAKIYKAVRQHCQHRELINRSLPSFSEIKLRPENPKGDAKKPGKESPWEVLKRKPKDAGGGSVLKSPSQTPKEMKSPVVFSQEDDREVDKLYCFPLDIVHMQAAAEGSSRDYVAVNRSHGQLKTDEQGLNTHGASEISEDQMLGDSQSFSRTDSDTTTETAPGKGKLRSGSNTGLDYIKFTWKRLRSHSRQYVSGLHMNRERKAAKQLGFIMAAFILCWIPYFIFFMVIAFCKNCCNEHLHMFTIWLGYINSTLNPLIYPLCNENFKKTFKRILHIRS

A word on the Kd: it is the equilibrium constant for the complex coming apart. As usually defined, the pKD is −log10 of the KD, conventionally taken in molar units. Read a high pKD as a small KD. In the case of `C[C@H](NC(=O)[C@H](C)NC(=O)[C@H](Cc1ccccc1)NC(=O)CCN1CCC(Oc2ccccc2Cc2ccccc2)CC1)C(=O)NCCC(=O)N[C@@H](CCCCNC(=O)CCCCCNC(=O)COc1ccc(/C=C/C2=[N+]3C(=Cc4ccc(-c5cccs5)n4[B-]3(F)F)C=C2)cc1)C(N)=O` [Compound 39a, N-((5S,8S,11S,18S)-5-Benzyl-1-(4-(2-benzylphenoxy)piperidin-1-yl)-18-carbamoyl-8,11-dimethyl-3,6,9,12,16-pentaoxo-4,7,10,13,17-pentaazadocosan-22-yl)-6-(2-(4-((E)-2-(5,5-difluoro-7-(thiophen-2-yl)-5H-4λ^4,5λ^4-dipyrrolo[1,2-c:2’,1’-f][1,3,2]diazaborinin-3-yl)vinyl)phenoxy)acetamido)hexanamide] ({Propanoyl(3-Pip(4-O-2-BnPh))}-FAA[βAla]K([Ahx-X1])-NH2), binding was put at a Kd of 0.01 µM and the negative logarithm of the KD (pKD) was 7.98 ± 0.01.
The molecule `C[C@H](NC(=O)[C@@H](NC(=O)CCN1CCC(Oc2ccccc2Cc2ccccc2)CC1)[C@@H](C)O)C(=O)N[C@@H](Cc1ccc(O)cc1)C(=O)NCCC(=O)N[C@@H](CCCCNC(=O)COc1ccc(/C=C/C2=[N+]3C(=Cc4ccc(-c5cccs5)n4[B-]3(F)F)C=C2)cc1)C(N)=O` [Compound 31h, (S)-2-((6S,9S,12S)-16-(4-(2-Benzylphenoxy)piperidin-1-yl)-6-(4-hydroxybenzyl)-12-((R)-1-hydroxyethyl)-9-methyl-5,8,11,14-tetraoxo-4,7,10,13-tetraazahexadecanamido)-6-(2-(4-((E)-2-(5,5-Difluoro-7-(thiophen-2-yl)-5H-5λ^4,6λ^4-dipyrrolo[1,2-c:2’,1’-f][1,3,2]diazaborinin-3-yl)vinyl)phenoxy)acetamido)hexanamide] ({Propanoyl(3-Pip(4-O-2-BnPh))}-TAY[βAla]K(X1)-NH2) had a dissociation constant (Kd) of 0.006 µM and a negative-log KD (pKD) of 8.23 ± 0.17.
The matching figures for `C[C@@H](O)[C@H](NC(=O)CCN1CCC(Oc2ccccc2Cc2ccccc2)CC1)C(=O)N[C@@H](CO)C(=O)N[C@@H](Cc1ccc(O)cc1)C(=O)NCCC(=O)N[C@@H](CCCCNC(=O)COc1ccc(/C=C/C2=[N+]3C(=Cc4ccc(-c5cccs5)n4[B-]3(F)F)C=C2)cc1)C(N)=O` [Compound 31g, (S)-2-((6S,9S,12S)-16-(4-(2-Benzylphenoxy)piperidin-1-yl)-6-(4-hydroxybenzyl)-12-((R)-1-hydroxyethyl)-9-(hydroxymethyl)-5,8,11,14-tetraoxo-4,7,10,13-tetraazahexadecanamido)-6-(2-(4-((E)-2-(5,5-difluoro-7-(thiophen-2-yl)-5H-5λ^4,6λ^4-dipyrrolo[1,2-c:2’,1’-f][1,3,2]diazaborinin-3-yl)vinyl)phenoxy)acetamido)hexanamide] ({Propanoyl(3-Pip(4-O-2-BnPh))}-TSY[βAla]K(X1)-NH2): 0.007 µM and 8.16 ± 0.12.
The molecule `CC(C)[C@H](NC(=O)CCN1CCC(Oc2ccccc2Cc2ccccc2)CC1)C(=O)N[C@@H](CCC(=O)O)C(=O)N[C@@H](CC(N)=O)C(=O)N[C@@H](Cn1cc(COc2ccc(/C=C/C3=[N+]4C(=Cc5ccc(-c6cccs6)n5[B-]4(F)F)C=C3)cc2)nn1)C(N)=O` [Compound 22c, (S)-5-(((S)-4-Amino-1-(((S)-1-amino-3-(4-((4-((E)-2-(5,5-difluoro-7-(thiophen-2-yl)-5H-5λ^4,6λ^4-dipyrrolo[1,2-c:2’,1’-f][1,3,2]diazaborinin-3-yl)vinyl)phenoxy)methyl)-1H-1,2,3-triazol-1-yl)-1-oxopropan-2-yl)amino)-1,4-dioxobutan-2-yl)amino)-4-((S)-2-(3-(4-(2-benzylphenoxy)piperidin-1-yl)propanamido)-3-methylbutanamido)-5-oxopentanoic Acid] showed a Kd of 0.162 µM and a negative logarithm of the KD (pKD) of 6.79 ± 0.04.
The matching figures for `C[C@H](NC(=O)CCN1CCC(Oc2ccccc2Cc2ccccc2)CC1)C(=O)N[C@@H](C)C(=O)N[C@@H](C)C(=O)N[C@@H](Cn1cc(COc2ccc(/C=C/C3=[N+]4C(=Cc5ccc(-c6cccs6)n5[B-]4(F)F)C=C3)cc2)nn1)C(N)=O` [Compound 22b, (S)-N-((S)-1-Amino-3-(4-((4-((E)-2-(5,5-difluoro-7-(thiophen-2-yl)-5H-5λ^4,6λ^4-dipyrrolo[1,2-c:2’,1’-f][1,3,2]diazaborinin-3-yl)vinyl)phenoxy)methyl)-1H-1,2,3-triazol-1-yl)-1-oxopropan-2-yl)-2-((S)-2-((S)-2-(3-(4-(2-benzylphenoxy)piperidin-1-yl)propanamido)propanamido)propanamido)propenamide]: 0.02 µM and 7.70 ± 0.05.
Molecule `CC(C)[C@H](NC(=O)CCN(C)CC/C=C1\c2ccccc2COc2ccccc21)C(=O)N[C@@H](CO)C(=O)N[C@@H](CC(N)=O)C(=O)NCCC(=O)N[C@@H](CCCn1cc(COc2ccc(/C=C/C3=[N+]4C(=Cc5ccc(-c6cccs6)n5[B-]4(F)F)C=C3)cc2)nn1)C(N)=O` [Compound 28c, (S)-N1-(3-(((S)-1-Amino-5-(4-((4-((E)-2-(5,5-difluoro-7-(thiophen-2-yl)-5H-5λ^4,6λ^4-dipyrrolo[1,2-c:2’,1’-f][1,3,2]diazaborinin-3-yl)vinyl)phenoxy)methyl)-1H-1,2,3-triazol-1-yl)-1-oxopentan-2-yl)amino)-3-oxopropyl)-2-((S)-2-((S)-2-(3-(((E)-3-(dibenzo[b,e]oxepin-11(6H)-ylidene)propyl)(methyl)amino)propanamido)-3-methylbutanamido)-3-hydroxypropanamido)succinamide] had a Kd of 0.019 µM and a negative logarithm of the KD (pKD) of 7.72 ± 0.11.
The matching figures for `CC(C)[C@H](NC(=O)CCN1CCC(Oc2ccccc2Cc2ccccc2)CC1)C(=O)N[C@@H](CO)C(=O)N[C@@H](CC(N)=O)C(=O)NCCC(=O)N[C@@H](CCCn1cc(COc2ccc(/C=C/C3=[N+]4C(=Cc5ccc(-c6cccs6)n5[B-]4(F)F)C=C3)cc2)nn1)C(N)=O` [Compound 28a, (S)-N1-(3-(((S)-1-Amino-5-(4-((4-((E)-2-(5,5-difluoro-7-(thiophen-2-yl)-5H-5λ^4,6λ^4-dipyrrolo[1,2-c:2’,1’-f][1,3,2]diazaborinin-3-yl)vinyl)phenoxy)methyl)-1H-1,2,3-triazol-1-yl)-1-oxopentan-2-yl)amino)-3-oxopropyl)-2-((S)-2-((S)-2-(3-(4-(2-benzylphenoxy)piperidin-1-yl)propanamido)-3-methylbutanamido)-3-hydroxypropanamido)succinamide]: 0.02 µM and 7.70 ± 0.05.
`CC(C)C[C@H](NC(=O)CCN1CCC(Oc2ccccc2Cc2ccccc2)CC1)C(=O)N[C@@H](CO)C(=O)N[C@@H](CC(N)=O)C(=O)NCCC(=O)N[C@@H](CCCCNC(=O)COc1ccc(/C=C/C2=[N+]3C(=Cc4ccc(-c5cccs5)n4[B-]3(F)F)C=C2)cc1)C(N)=O` [Compound 31j, (S)-N1-(3-(((S)-1-Amino-6-(2-(4-((E)-2-(5,5-difluoro-7-(thiophen-2-yl)-5H-5λ^4,6λ^4-dipyrrolo[1,2-c:2’,1’-f][1,3,2]diazaborinin-3-yl)vinyl)phenoxy)acetamido)-1-oxohexan-2-yl)amino)-3-oxopropyl)-2-((S)-2-((S)-2-(3-(4-(2-benzylphenoxy)piperidin-1-yl)propanamido)-4-methylpentanamido)-3-hydroxypropanamido)succinamide] ({Propanoyl(3-Pip(4-O-2-BnPh))}-LSN[βAla]K(X1)-NH2) returned a dissociation constant Kd of 0.006 µM and a pKD of 8.23 ± 0.06.
